Experimental data reported in paper PMC8145596, “Novel Chemically Modified Curcumin (CMC) Derivatives Inhibit Tyrosinase Activity and Melanin Synthesis in B16F10 Mouse Melanoma Cells” (Biomolecules, 2021).

Experiments:
MTS cell viability assay = assay type: cell-based, mouse; settings: mouse, B16F10 mouse melanoma cells, 48 h, B16F10
Method: B16F10 mouse melanoma cells (CRL-6475™) were obtained from American Type Culture Collection (ATCC, Manassas, VA, USA) and cultured using Dulbecco’s Modified Eagle Medium (DMEM) supplemented with 10% heat-inactivated fetal bovine serum (HI-FBS) and 1% antibiotics (penicillin-streptomycin) in a humidified incubator with 95% air—5% CO2 at 37 °C. In order to test the four CMCs (CMC2.14, CMC2.24, CMC2.5 and CMC2.23) to that of PC, for their effects on melanin content, we first screened them for cytotoxicity using a tetrazolium assay with MTS (Promega CellTiter Aqueous One). Briefly, B16F10 cells were seeded at 4 × 10^3 cells/well in a 96-well plate for 24 h. The compounds were diluted using culture medium to yield a final DMSO in all groups of 0.16% and added to the cell monolayers in wells after 24 h. Control was treated with 0.16% DMSO. At the end of 48 h, the medium was aspirated and replaced by 100 μL of fresh medium. 20 μL of MTS reagent was then added, and the plate was incubated at 37 °C for 40 min. At this point, the absorbance of 100 μL aliquots was read at 490 nm using a microplate reader. Cell viability was calculated from the absorbance values relative to control groups and expressed in %.

breast cancer cells = system: breast cancer cells; parameters: method as in PMID 31505772; settings: cited from earlier work
[1] = system: MNT-1 human melanoma cells; assay: MTS cytotoxicity assay in MNT-1 cells; assay type: cell-based; settings: 20 µM, 48 h
Method: II. Experiments in MNT-1 human melanoma cells
MNT-1 cells (kindly provided by Dr. Michael Marks, University of Pennsylvania) were cultured using DMEM supplemented with 1 % MEM (minimum essential medium), 18 % HI-FBS, 10 % AIM-V medium (Gibco) and 1 % antibiotic mixture.
MNT-1 human melanoma cells (2 × 10^4 cells/ well) were seeded in a 96-well plate and cultured for 96 h. After this, the test compounds were added in complete medium and cultures were maintained for 48 h, followed by conducting the MTS assay to detect cytotoxicity similar to methods reports in main text. The results were expressed as % normalized to untreated control group.
MNT-1 human melanoma cells were seeded at 2.2 × 10^5 cells/well in 12-well plates and incubated for 24 hours. […] Briefly, the absorbance of melanin was measured at 475 nm and was normalized to the total protein contents and reported as relative melanin levels as a % of control.
Figure S3: Viability of MNT-1 cells treated with A) PC, CMC2.14 and CMC2.5 and B) CMC2.23 and CMC2.24 for a duration of 48 h evaluated by MTS assay; Data for A)-B) are mean ± SD of 3-4 determinations; C) Melanin content in cultures of MNT-1 cells treated for 48 h with different concentrations of PC and CMCs, Data are mean ± SD of values combined from two independent experiments. * p < 0.05 vs. control (Ctrl); One-way ANOVA with Tukey’s […]

COC(=O)/C(C(=O)/C=C/c1ccc(O)cc1)=C(O)\C=C\c1ccc(O)cc1 [CMC2.14]
viability at 48 h, 20 µM (MTS cell viability assay; 20 µM): 72.2% | viability at 48 h, 25 µM (MTS cell viability assay; 25 µM): 55.5%

1,7-bis(4-hydroxy-3-methoxyphenyl)-1,6-heptadien-3,5-dione [PC, reference compound]
concentrations highly cytotoxic to breast cancer cells (breast cancer cells): > 10 µM

O=C(/C=C/c1ccc(O)cc1)/C(C(=O)Nc1ccccc1)=C(O)/C=C/c1ccc(O)cc1 [CMC2.24]
cytotoxicity in MNT-1 cells [1]: nontoxic
